Assay results from patent US7083779B2 (Council of Scientific and Industrial Research, priority 2003, dated 2006).

Assays:
P. falciparum = conditions: cited from earlier work

## CC(=O)O[C@@H]1C[C@H]2C(C)(C)C(=O)C=C[C@]2(C)[C@H]2CC[C@@]3(C)[C@H](c4ccoc4)C(=O)[C@H]4O[C@]43[C@@]21C [nimbinin]
P. falciparum
  LC50 against P. falciparum: 0.72 to 1.74 µg/mL

## CC(=O)O[C@@H]1C[C@H]2C(C)(C)C(=O)CC[C@]2(C)[C@H]2CC[C@@]3(C)[C@H](c4ccoc4)OC(=O)[C@H]4O[C@]43[C@@]21C [dihydrogedunin]
P. falciparum
  LC50 against P. falciparum: 0.72 to 1.74 µg/mL

## [H]/N=C(\N/C(=N/[H])NCCCCCCNC(=N)NC(=N)Nc1ccc(Cl)cc1)Nc1ccc(Cl)cc1 [Chlorhexidine]
Cultured fibroblasts
  Reversibility of effect on cultured fibroblasts (cell viability and protein quantification): damage the cells irreversibly
Cultured fibroblasts; 0.001 %
  Cytotoxicity (cell viability): cytotoxic even at 0.001%
